How the values were obtained:
[1] = tested on: CoA-IT; assay: Microsomal CoA-IT activity assay (U937 cell microsomes); type: biochemical; settings: increased uM or longer pretreatment time
Description: The following is a method to measure CoA-IT activity and the effects of compounds on CoA-IT activity. The assay is based upon mixing cellular material containing CoA-IT activity with a stable lyso phospholipid such as 1-alkyl-2-acyl-GPC and measuring the production of phospholipid product such as 1-alkyl-2-acyl-GPC occurring in the absence of added CoA or CoA-fatty acids.
Any inflammatory cell that contains high levels of COA-IT activity can be used, such as neutrophils, macrophages or cell lines such as U937 cells. U937 cells were obtained from American Type Culture Collection and grown in RPMI- 1640 media (Gibco, Grand Island, N.Y.) supplemented with 10% fetal bovine serum (Hyclone, Logan, Utah) at 37° C., 5% CO2. Cells were grown without differentiation (basal state) by any agent, such as dimethyl sulfoxide.
Microsomes were prepared using standard techniques. […]
CoA-lT activity was measured in 1.5 ml centrifuge tubes in a total volume of 100 ul. […] An aliquot of the chloroform-extracted materials were separated, usually by TLC in chloroform/methanol/acetic acid/water (50:25:8:4, v/v), visualized by radioscanning (Bioscan) and the product, [^3 H]1-alkyl-2-acyl-GPC, was scraped and quantified by liquid scintillation spectroscopy. […]
Protein concentration were assessed using the protein assay reagents from Bio-Rad (Richmond, Calif.).

[2] = tested on: phorbol ester-induced inflammation in mouse ear; assay: TPA-induced mouse ear inflammation (ear edema and MPO); type: in vivo; settings: topical, Balb/c mice
Procedure: Male Balb/c inbred mice were obtained from Charle River Breeding Laboratories (Kingston, N.Y.). Within a single experiment mice (22-25 g) were age-matched. These in vivo experiments typically involved use of 5-6 animals/group.
TPA (12-O-tetradecanoylphorbol 13-acetate) (Sigma Chemical Company) in acetone ([…]) was applied to the inner and outer surfaces of the left ear of BALB/c male mice. The thickness of both ears was then measured with a dial micrometer (Mitutoyo, Japan) at both 2 and 4 hours after treatment, and the data expressed as the change in thickness (10^-3 cm) between treated and untreated ears. […] After measuring the edema, the inflammed left ears were removed and stored at -70° C. until they were assayed for MPO (myeloperoxidase) activity where appropriate.
On the day of the assay, partially thawed ear tissues were minced and then homogenized (10% w/v) with a Tissumnizer homogenizer (Tekmar Co.) in 50 mM phosphate buffer (pH 6) containing 0.5% HTAB. […] Supernatant MPO activity was quantified kinetically (change in absorbance measured over 3 min, sampled at 15-sec intervals) using a Beckman DU-7 spectrophotometer and a Kinetics Analysis package (Beckman Instruments, Inc.). […]
Balb/c mice were given PMA followed by the test compound. The edematous response was measured using a thickness gauge 4 hrs post PMA application. […]

## COC(=O)CCCO[C@@H]1NC(=O)[C@H]1NC(c1ccccc1)(c1ccccc1)c1ccccc1 [Example 17, (3S,4S)-4-[3-(Methoxycarbonyl)propoxy]-3-(triphenylmethylamino)azetidin-2-one]
[1]
  activity in CoA-IT assay at increased concentration or longer pretreatment: active at either increased uM or longer pretreatment time

## C[C@@H]1C[C@H]2[C@@H]3CCC4=CC(=O)C=C[C@]4(C)[C@@]3(F)[C@@H](O)C[C@]2(C)[C@@]1(O)C(=O)CO [dexamethasone, reference compound]
[2]; 4 hrs post PMA application
  Edema @ 4 hr ED50: 0.06 mg/ear
[2]; inflamed ears harvested after the 4 hr edema measurement
  MPO response ED50: 0.03 mg/ear

Source: US6221860A, “Beta-lactam inhibitors of CoA-IT” (SmithKline Beecham Corporation, priority 1999, dated 2001)
